Patent US20080114020A1, “Difluoro-Substituted Imidazopyridines” (Altana Pharma AG, priority 2004, published 2008)

These compounds were tested on pentagastrin-stimulated acid secretion of the perfused rat stomach. Conditions: anesthetized CD rat, female; dose 1 μmol/kg i.d. (intraduodenal); pentagastrin 1 μg/kg i.v. infusion.
Procedure: The abdomen of anesthetized rats (CD rat, female, 200-250 g; 1.5 g/kg i.m. urethane) was opened after tracheotomy by a median upper abdominal incision and a PVC catheter was fixed transorally in the esophagus and another via the pylorus such that the ends of the tubes just projected into the gastric lumen. The catheter leading from the pylorus led outward into the right abdominal wall through a side opening.
After thorough rinsing (about 50-100 ml), warm (37° C.) physiological NaCl solution was continuously passed through the stomach (0.5 ml/min, pH 6.8-6.9; Braun-Unita I). The pH (pH meter 632, glass electrode EA 147; φ=5 mm, Metrohm) and, by titration with a freshly prepared 0.01 N NaOH solution to pH 7 (Dosimat 665 Metrohm), the secreted HCl were determined in the effluent in each case collected at an interval of 15 minutes.
The gastric secretion was stimulated by continuous infusion of […] (=1.65 ml/h) of i.v. pentagastrin (left femoral vein) about 30 min after the end of the operation (i.e. after determination of 2 preliminary fractions). The substances to be tested were administered intraduodenally in a 2.5 ml/kg liquid volume 60 min after the start of the continuous pentagastrin infusion. The body temperature of the animals was kept at a constant 37.8-38° C. by infrared irradiation and heat pads (automatic, stepless control by means of a rectal temperature sensor).
In the case of `Cc1nc2c3c(ccn2c1C)C(c1ccccc1)C(O)C(F)(F)O3` [Example 1, (8R,9R)-7,7-Difluoro-2,3-dimethyl-8-hydroxy-9-phenyl-7H-8,9-dihydro-pyrano[2,3-c]imidazo[1,2-a]pyridine], the “Inhibition of acid secretion (%)” value is reported as greater than 85%. For `COCC(=O)O[C@@H]1[C@@H](c2ccccc2)Oc2c(ccn3c(C)c(C)nc23)C1(F)F` [Example 8, (8R,9R)-7,7-Difluoro-2,3-dimethyl-8-(2-methoxy-acetyloxy)-9-phenyl-7H-8,9-dihydro-pyrano[2,3-c]imidazo[1,2-a]pyridine], the “Inhibition of acid secretion (%)” value was greater than 85%. With `Cc1nc2c3c(ccn2c1C)C(c1ccccc1)C(OC(=O)CN(C)C)C(F)(F)O3` [Example 9, (8R,9R)-7,7-Difluoro-2,3-dimethyl-8-(2-dimethylamino-acetyloxy)-9-phenyl-7H-8,9-dihydro-pyrano[2,3-c]imidazo[1,2-a]pyridine] the “Inhibition of acid secretion (%)” value was greater than 85%. With `CC(=O)OC1C(c2ccccc2)c2ccn3c(C)c(C)nc3c2OC1(F)F` [Example 2, (8R,9R)-8-Acetoxy-7,7-difluoro-2,3-dimethyl-9-phenyl-7H-8,9-dihydro-pyrano[2,3-c]imidazo[1,2-a]pyridine] the “Inhibition of acid secretion (%)” value was greater than 85%. In the case of `COC(=O)O[C@@H]1[C@@H](c2ccccc2)Oc2c(ccn3c(C)c(C)nc23)C1(F)F` [Example 10, (8R,9R)-7,7-Difluoro-2,3-dimethyl-8-(methoxy-carbonyloxy)-9-phenyl-7H-8,9-dihydro-pyrano[2,3-c]imidazo[1,2-a]pyridine], the “Inhibition of acid secretion (%)” value is reported as greater than 85%.
